Measurements taken from US11179380B2, “Compounds and compositions for use in treating psoriasis” (SOLVOTRIN THERAPEUTICS LTD, priority 2017, dated 2021).

Experiments:
[1] = tested on: Peripheral Blood Mononuclear Cells (PBMCs); test: Cytokine-expressing cells in stimulated PBMC (anti-CD3, PMA and ionomycin), flow cytometry; type: cell-based, human
Procedure: PBMC were isolated from leukocyte-enriched buffy coats obtained from anonymous healthy donors with consent from the Irish Blood Transfusion Service, St James' Hospital, Dublin, Ireland. PBMC were pre-treated with test compounds or a vehicle control at the indicated concentrations for 6 hours prior to stimulation by anti-CD3 for 4 days and re-stimulated with PMA and ionomycin for 6 hours. Thereafter cells were counted using flow cytometry.

Aldara-treated mice = test: Aldara-induced model of psoriasis in mice, clinical scoring (PASI); type: in vivo, mice (C57BL/6J)
Procedure: Specific Pathogen-Free female C57BL/6J strain mice, 6-8 weeks of age, were obtained from a commercial supplier and bred in-house (JAX, Charles River). Mice were fed irradiated diet and housed in individually ventilated cages (Tecniplast, UK) under positive pressure. All animal experiments were performed in compliance with the Health Products Regulatory Authority and approved by the Trinity College Dublin's BioResources ethical review board.
The Aldara-induced model of psoriasis was used (Flutter and Nestle, 2013; Morwietz, 2015; Russell et al., 2013; van der Fits et al., 2009). The dorsal skin of mice was shaved and depilated on day −1. Mice were that were in the telogen phase (resting phase) of the hair cycle were chosen for experiments. Mice with visual skin damage from shaving were excluded. Mice were then randomly divided into groups for treatment with topical application of vehicle (white petroleum jelly) or Solvotrin test compounds, prepared in white petroleum jelly. On day 0, mice were scored for disease signs, as per below. After which 62.5 mg of Aldara™ cream (5% Imiquimod; MEDA Pharmaceuticals) was applied to a defined area of the shaved dorsal skin surface. Thirty minutes after the Aldara application, test compounds or vehicle was applied to the dorsal flank, to cover the entire Aldara-challenged surface, with an even layer of the white petroleum. This process was repeated for a further 5 days. Mice were scored daily. On day 6 the mice were euthanized for tissue collection.
The skin of mice was scored for signs of psoriasis-like inflammation for a total of 7 days, (i.e. days 0-6), as described (van der Fits et al., 2009). Mice were scored according to 3 parameters: erythema (the redness of skin); thickening of the skin; and scaling (dryness and flaking of the skin). For each parameter, the mice were scored on a scale from 0-4. Mice with no pathology were scored 0. Mice with mild pathology scored 1. […] The total, or Psoriasis Area and Severity Index (PASI), score was the cumulative score of all three parameters. Therefore for each mouse studied the PASI score can range between 0 to 12.
Power calculations on data from previous studies have shown that a sample size of at least 6 will detect significant difference (P<0.05) in PASI scores between groups. ANOVA and Dunnett Multiple Comparison Test determined statistical differences between multiple groups. Two tailed Student's t-test was used to compare statistical differences between two groups.
Unless otherwise specified percentage concentration of a test compound in a composition refers to the weight percent of said test compound in the composition. For example, application of 2% compound X, means application of a composition comprising 2 weight percent of compound X.

normal healthy skin = test: Assessment of erythema and itchiness after topical application to shaved forearm; type: in vivo
Procedure: Test article dispersed in petroleum jelly was applied to a 2×2 cm patch of shaved forearm (n=3). At specified time intervals the degree of erythema was recorded by blinded observers on a scale of 1-4 (n=3). Itchiness was observed by scratching behaviour also by blinded observers on a scale of 1-4. The time course of erythema resolution was recorded at 30 minute intervals.

physchem = conditions: for Rm: calculated from Rf
Procedure: The partition coefficient (P) is used to describe the lipophilicity of a drug. It is defined as the ratio of equilibrium concentrations of a drug in an organic phase (Corg) and an aqueous phase (Caq).
Most commonly the organic solvent is n-octanol and the other solvent is water. Hydrophobic molecules will have a high P value while hydrophilic molecules will have a low P value.
Rm values were calculated from Rf values that were obtained at three different mobile phase compositions (40, 50 and 60% MeOH in water).
The Rm value was calculated using the following equation: […]
The theoretical Rm value at 0% organic modifier was calculated by extrapolating from the calibration curves that were obtained. These values were then correlated to the literature log P of two reference compounds (methyl benzoate and paracetamol).

Primary human DC = test: Cytokine concentrations in LPS-stimulated monocyte-derived dendritic cells, ELISA; type: cell-based; conditions: LPS 24 hours
Procedure: Primary human DC were produced from CD14+ monocytes isolated from healthy human PBMC via magnetic cell sorting. Monocyte-derived DC were pre-treated with test compounds or a vehicle control for 6 hours prior to stimulation by LPS for 24 hours. Cytokine concentrations in cell supernatants were determined by ELISA (eBiosciences).

[2] = activated T-cells, various concentrations

With `CC(=O)Oc1ccccc1C(=O)O[C@H]1COC2C1OC[C@H]2OC(=O)c1cccnc1` (stereo partly drawn) [ST0702, Isosorbide-2-aspirinate-5-nicotinate] the “number of IL-17 expressing cells” value [1] was “inhibitory effect”, the “percentage of TNF-alpha expressing cells” value ([1]; 50 μM) was “reduced” and the GM-CSF [1, 2] was “appreciable effect”. The IL-2 [1, 2] was “not to have any appreciable effect”, the “percentage of IFN-gamma expressing cells” value ([1]; in comparison to control) was “significantly reduced” and the PASI scores (Aldara-treated mice; 0.5% topical, relative to Vehicle-treated mice) was “significantly lower on days 3 (P<0.05) and 4 (P<0.01)”. For the same molecule, the erythema score (Aldara-treated mice; 0.5 or 5% topical, vs Vehicle) was “significant, and dose-dependent, reductions”, the scaling score (Aldara-treated mice; 0.5 or 5% topical, vs Vehicle) was “significant, and dose-dependent, reductions” and the skin thickness score (Aldara-treated mice; 0.5 or 5% topical, vs Vehicle) was “significant, and dose-dependent, reductions”. The “efficacy in the ALDARA model” value (Aldara-treated mice; 2%) was “effective”, the “skin inflammation (PASI score)” value (Aldara-treated mice; higher dose (5%) topical, vs Vehicle) was “reduced skin inflammation on days 3-5 (P<0.01-0.001)” and the “progressive development of psoriasis-like skin inflammation” value (Aldara-treated mice; topical in white petroleum jelly, two separate experiments (3%; 0.5 or 5%), vs Vehicle) was “significantly (P<0.05-0.001) reduced”. The “cumulative irritancy score (irritancy/erythema)” value (normal healthy skin; 2%) was “did not cause irritancy/erythema”, the erythema/irritation (normal healthy skin; 2% in petroleum jelly, 1 hour after application) was “did not cause erythema/irritation” and the temporal erythema response (normal healthy skin; 5% in petroleum jelly) was “resolved rapidly”. The chromatographic logP (physchem) was 4.1, the Rf (physchem; 40% MeOH in water) was 0.0460 and the Rm (physchem; 40% MeOH in water) was 1.3168. It also gave a Rf (physchem; 50% MeOH in water) of 0.1200, a Rm (physchem; 50% MeOH in water) of 0.8653 and a Rf (physchem; 60% MeOH in water) of 0.2730. For the same molecule, the Rm (physchem; 60% MeOH in water) was 0.4254, the “Extrapolated Rm (y value)” value (physchem; theoretical Rm at 0% organic modifier) was 3.0977 and the IL-10 (Primary human DC) was “no appreciable effect”.
